Consider 14 compounds from PMC7894522, “Structure Based Design of Bicyclic Peptide Inhibitors of RbAp48” (Angewandte Chemie (International Ed. in English), 2020).

Where two headings read alike, the source gives them in different places. Starred links: 1 amine or outer side, 2 acyl side, 3 side chain; linkers in the order of their positions; H or OH if unused. Positions of bridges follow the written chain, without caps; N, C: chain ends. Residues, ends and D or L forms follow the SMILES beside them. TBMB = c1c(C[*:1])cc(C[*:3])cc1C[*:2]; mXylylene = c1cc(C[*:1])cc(C[*:2])c1; oXylylene = c1ccc(C[*:2])c(C[*:1])c1; X2 = c1ccc2c(C[*:2])ccc(C[*:1])c2c1; X3 = COc1cc(C[*:1])cc(C[*:2])c1

The target in the assay is RbAp48 (Homo sapiens, UniProt Q09028). Briefly: Competitive fluorescence polarization (FP) assay using complex of peptide 1 and RbAp48. It is filed as binding. Further details: Full length RbAp48 was cloned; His tag followed by 3C cleavage site (N, cleaved yes); made in house; host or cells: Sf9 insect cells. To be noted: for IC50: competitive FP, RbAp48 15 nM, read-out: IC50. The protocol: The binding affinity of our library of synthetic cyclic peptides was evaluated by a competitive fluorescence polarization (FP) assay using a complex formed by peptide 1 and RbAp48. To reduce the length of the peptide it was truncated to the amino acids which seemed most critical according to the crystal structure (residues 676–689, pdb:4pbz). […] We chose to use a cyclization approach to regain affinity, that is, not to induce more interactions but through minimizing the entropic penalty upon binding by reducing the flexibility of the peptide. To this end two amino acids were chosen which are facing one another in the structure (see Figure 1 B/D/E). Two peptides were designed where glutamic acid was used in position 676 (4) or position 680 (5) and lysine in position 688 for both peptides (see Table 1). The macrocycles were formed by connecting the side chains via an amide bond (see Figure 1 D/E). Peptide synthesis was performed on Rink‐amide resin using the Fmoc‐strategy incorporating Fmoc‐L‐Glu(All)‐OH and Fmoc‐L‐Lys(Alloc)‐OH at the sites for cyclization. After completion of the linear synthesis the allyl protecting groups were removed using Pd^0 catalysis and the amide link was formed by using PyBOP. […] Therefore, a range of peptides was synthesized which were cyclized using the same amino acid positions but via a cysteine alkylation strategy (see Figure 1 D/E and Table 1). In this method the residues used for cyclization are replaced with cysteine and benzylic dibromides act as crosslinkers on the unprotected peptides. ^[11] Previous research has shown that such linkers can effectively stabilize cyclic peptides and yield high affinity ligands for protein–protein interaction inhibition. ^[12] Such a linker introduces a xylene group in close vicinity of the hydrophobic patch potentially reconstituting the lost key hydrophobic interactions. To explore a variety of macrocycle conformations we used either ortho‐, meta‐ or para‐substituted dibromides to exchange the linker in both 4 and 5 (see Figure 1 D/E and Table 1). ^[13]
Protein expression and purification
RbAp48 was expressed and purified by the Dortmund Protein Facility. Full length RbAp48 was cloned into a pOPIN vector ligating it to an N-terminal His tag followed by a 3C cleavage site. The protein was expressed from Sf9 cells for 48 h. Cells were harvested and lysed and the protein was purified by loading onto a HisTrap FF crude 5 ml column followed by on-column cleavage using Precission protease. The cleaved protein was then further purified using a HiLoad 26/60 Superdex 200 column.
Fluorescence polarization assay
Fluorescence polarization assays were performed in 384 wells plates in 80 µl volumes. The assay buffer contains 20 mM Tris-HCl, 150 mM NaCl, 0.01% Tween-20 at pH 7.5. The concentration of the fluorescently labelled peptides was 1 nM plates were incubated at room temperature for 30 min before they were read on a Tecan Spark plate reader (λex = 485 nm, λem = 535 nm).
For competitive assays the same conditions were used with a tracer concentration of 1 nM was used and a protein concentration of 15 nM .
A general note: Fluorescence polarisation rises when a labelled molecule tumbles more slowly, as on binding a larger partner.

Where [1] appears, read: Supplemental Table 2, tracer 1 nM, pH 7.5, 30 min room temperature.
The mark [2] stands for this setting: Table 1, tracer peptide 1 1 nM, 20 mM Tris-HCl, 150 mM NaCl, 0.01% Tween-20, pH 7.5, 30 min room temperature, lower limit set by 15 nM protein.

Sequence of RbAp48 (Q09028 whole entry, the tested form may be a part): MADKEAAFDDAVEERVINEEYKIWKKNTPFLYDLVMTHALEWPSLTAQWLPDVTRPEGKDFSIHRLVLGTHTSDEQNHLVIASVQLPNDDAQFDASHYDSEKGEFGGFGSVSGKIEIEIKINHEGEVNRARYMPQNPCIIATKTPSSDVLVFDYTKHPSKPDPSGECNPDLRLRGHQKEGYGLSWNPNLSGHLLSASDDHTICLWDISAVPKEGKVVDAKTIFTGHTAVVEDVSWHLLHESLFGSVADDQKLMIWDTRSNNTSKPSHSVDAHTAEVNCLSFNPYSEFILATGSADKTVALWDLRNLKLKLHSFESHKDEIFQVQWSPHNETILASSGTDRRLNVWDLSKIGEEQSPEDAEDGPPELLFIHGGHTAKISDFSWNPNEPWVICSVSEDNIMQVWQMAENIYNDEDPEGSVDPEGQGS

Turning to `CC(=O)N[C@H]1CSCc2cccc(c2)CSC[C@@H](C(=O)N[C@@H](CC(N)=O)C(N)=O)NC(=O)[C@@H]2CCCN2C(=O)[C@H](CC(C)C)NC(=O)[C@H](Cc2ccc(O)cc2)NC(=O)[C@@H]2CCCN2C(=O)[C@H](Cc2c[nH]cn2)NC(=O)[C@H](CCCNC(=N)N)NC(=O)[C@H](C)NC(=O)[C@H](C)NC(=O)[C@H](Cc2c[nH]cn2)NC(=O)[C@H](Cc2c[nH]c3ccccc23)NC(=O)[C@@H]2CCCN2C(=O)[C@H](CCCNC(=N)N)NC1=O` [Peptide 16] (Ac-CRPWHAARHPYLPCN-NH2; linker 1-14 via mXylylene), the IC50 (as a rule, the midpoint of a concentration-inhibition curve) under setting [1] was greater than 10000 nM.

Consider `CC(=O)N[C@H]1CSCc2cccc(c2)CSC[C@@H](C(=O)N[C@@H](C)C(N)=O)NC(=O)[C@@H]2CCCN2C(=O)[C@H](CCCCN)NC(=O)[C@H](Cc2ccc(O)cc2)NC(=O)[C@@H]2CCCN2C(=O)[C@H](CCCNC(=N)N)NC(=O)[C@H](CCCNC(=N)N)NC(=O)[C@H](C)NC(=O)[C@H](C)NC(=O)[C@H](Cc2c[nH]cn2)NC(=O)[C@H](CCCCN)NC(=O)[C@H]([C@@H](C)O)NC1=O` [Peptide 24] (Ac-CTKHAARRPYKPCA-NH2; linker 1-13 via mXylylene), for which the IC50 under setting [1] is 265 ± 7.4 nM.

For `CC(=O)N[C@H]1CSCc2cccc(c2)CSC[C@@H](C(=O)N[C@@H](C)C(N)=O)NC(=O)[C@@H]2CCCN2C(=O)[C@H](CCCCN)NC(=O)[C@H](Cc2ccc(O)cc2)NC(=O)[C@@H]2CCCN2C(=O)[C@H](CCCNC(=N)N)NC(=O)[C@H](CCCNC(=N)N)NC(=O)[C@H](C)NC(=O)[C@H](C)NC(=O)[C@H](CCCNC(=N)N)NC(=O)[C@H](CCCCN)NC(=O)[C@H]([C@@H](C)O)NC1=O` [Peptide 7] (Ac-CTKRAARRPYKPCA-NH2; linker 1-13 via mXylylene), the IC50 under setting [2] was 18.7 ± 4.1 nM.

For the compound `CC(=O)N[C@H]1CSCc2ccccc2CSC[C@@H](C(=O)N[C@@H](C)C(N)=O)NC(=O)[C@@H]2CCCN2C(=O)[C@H](CCCCN)NC(=O)[C@H](Cc2ccc(O)cc2)NC(=O)[C@@H]2CCCN2C(=O)[C@H](CCCNC(=N)N)NC(=O)[C@H](CCCNC(=N)N)NC(=O)[C@H](C)NC(=O)[C@H](C)NC(=O)[C@H](CCCNC(=N)N)NC(=O)[C@H](CCCCN)NC(=O)[C@H]([C@@H](C)O)NC1=O` [Peptide 6] (Ac-CTKRAARRPYKPCA-NH2; linker 1-13 via oXylylene), the IC50 under setting [2] was determined as 77.4 ± 6.5 nM.

On to `CC(=O)N[C@H]1CSCc2cccc(c2)CSC[C@@H](C(=O)N[C@@H](C)C(N)=O)NC(=O)[C@@H]2CCCN2C(=O)[C@H](CCCCN)NC(=O)[C@H](Cc2ccc(O)cc2)NC(=O)[C@@H]2CCCN2C(=O)[C@H](Cc2c[nH]cn2)NC(=O)[C@H](CCCNC(=N)N)NC(=O)[C@H](C)NC(=O)[C@H](C)NC(=O)[C@H](CCCNC(=N)N)NC(=O)[C@H](CCCCN)NC(=O)[C@H]([C@@H](C)O)NC1=O` [Peptide 26] (Ac-CTKRAARHPYKPCA-NH2; linker 1-13 via mXylylene), for which the IC50 under setting [1] was found to be 512 ± 48.4 nM.

With `CC(=O)N[C@H]1CCC(=O)NCCCC[C@@H](C(=O)N[C@@H](C)C(N)=O)NC(=O)[C@@H]2CCCN2C(=O)[C@H](CCCCN)NC(=O)[C@H](Cc2ccc(O)cc2)NC(=O)[C@@H]2CCCN2C(=O)[C@H](CCCNC(=N)N)NC(=O)[C@H](CCCNC(=N)N)NC(=O)[C@H](C)NC(=O)[C@H](C)NC(=O)[C@H](CCCNC(=N)N)NC(=O)[C@H](CCCCN)NC(=O)[C@H]([C@@H](C)O)NC1=O` [Peptide 4] (Ac-ETKRAARRPYKPKA-NH2; lactam 1-13), the half-maximal inhibitory concentration (IC50) under setting [2] was found to be 47.7 ± 12.5 nM.

Regarding `CC(=O)N[C@@H](CCC(=O)O)C(=O)N[C@H](C(=O)N[C@@H](CCCCN)C(=O)N[C@@H](CCCNC(=N)N)C(=O)N[C@H]1CSCc2cccc(c2)CSC[C@@H](C(=O)N[C@@H](C)C(N)=O)NC(=O)[C@@H]2CCCN2C(=O)[C@H](CCCCN)NC(=O)[C@H](Cc2ccc(O)cc2)NC(=O)[C@@H]2CCCN2C(=O)[C@H](CCCNC(=N)N)NC(=O)[C@H](CCCNC(=N)N)NC(=O)[C@H](C)NC1=O)[C@@H](C)O` [Peptide 11] (Ac-ETKRCARRPYKPCA-NH2; linker 5-13 via mXylylene), the IC50 under setting [2] is 388 ± 69.8 nM.

As for `CC(=O)N[C@H]1CSCc2ccc(c3ccccc23)CSC[C@@H](C(=O)N[C@@H](C)C(N)=O)NC(=O)[C@@H]2CCCN2C(=O)[C@H](CCCCN)NC(=O)[C@H](Cc2ccc(O)cc2)NC(=O)[C@@H]2CCCN2C(=O)[C@H](CCCNC(=N)N)NC(=O)[C@H](CCCNC(=N)N)NC(=O)[C@H](C)NC(=O)[C@H](C)NC(=O)[C@H](CCCNC(=N)N)NC(=O)[C@H](CCCCN)NC(=O)[C@H]([C@@H](C)O)NC1=O` [Peptide 32] (Ac-CTKRAARRPYKPCA-NH2; linker 1-13 via X2 (inferred)), the IC50 under setting [1] came out at 43.7 ± 6.4 nM.

Take `CC(=O)N[C@H]1CSCc2cc3cc(c2)CSC[C@@H](C(=O)N[C@@H](CC(N)=O)C(N)=O)NC(=O)[C@@H]2CCCN2C(=O)[C@H](CC(C)C)NC(=O)[C@H](Cc2ccc(O)cc2)NC(=O)[C@@H]2CCCN2C(=O)[C@H](Cc2c[nH]cn2)NC(=O)[C@H](CCCNC(=N)N)NC(=O)[C@H](C)NC(=O)[C@H](CSC3)NC(=O)[C@H](Cc2c[nH]cn2)NC(=O)[C@H](Cc2c[nH]c3ccccc23)NC(=O)[C@@H]2CCCN2C1=O` [Peptide 35] (Ac-CPWHCARHPYLPCN-NH2; linker 1-5-13 via TBMB): the half-inhibitory concentration (IC50) under setting [1] amounted to 7480 ± 3020 nM.

On to `CC(=O)N[C@H]1CSCc2cc3cc(c2)CSC[C@H](NC(=O)[C@H](CCCNC(=N)N)NC(=O)[C@H](CCCCN)NC(=O)[C@H]([C@@H](C)O)NC1=O)C(=O)N[C@@H](C)C(=O)N[C@@H](CCCNC(=N)N)C(=O)N[C@@H](CCCNC(=N)N)C(=O)N1CCC[C@H]1C(=O)N[C@@H](Cc1ccc(O)cc1)C(=O)N[C@@H](CCCCN)C(=O)N[C@@H](C)C(=O)N[C@H](C(=O)N[C@@H](C)C(N)=O)CSC3` [Peptide 45] (Ac-CTKRCARRPYKACA-NH2; linker 1-5-13 via TBMB), for which, under setting [2], the concentration for half-maximal inhibition (IC50) turned out to be 15.6 ± 2.2 nM.

`COc1cc2cc(c1)CSC[C@@H](C(=O)N[C@@H](C)C(N)=O)NC(=O)[C@@H]1CCCN1C(=O)[C@H](CCCCN)NC(=O)[C@H](Cc1ccc(O)cc1)NC(=O)[C@@H]1CCCN1C(=O)[C@H](CCCNC(=N)N)NC(=O)[C@H](CCCNC(=N)N)NC(=O)[C@H](C)NC(=O)[C@H](C)NC(=O)[C@H](CCCNC(=N)N)NC(=O)[C@H](CCCCN)NC(=O)[C@H]([C@@H](C)O)NC(=O)[C@@H](NC(C)=O)CSC2` [Peptide 28] (Ac-CTKRAARRPYKPCA-NH2; linker 1-13 via X3 (inferred)): under setting [1], the IC50 is 38.4 ± 3.8 nM.

Turning to `CC(=O)N[C@H]1CSCc2cc3cc(c2)CSC[C@@H](C(=O)N[C@@H](CCCCN)C(N)=O)NC(=O)[C@H](CCCNC(=N)N)NC(=O)[C@@H]2CCCN2C(=O)[C@H](C)NC(=O)[C@H]([C@@H](C)O)NC(=O)[C@H](CCCCN)NC(=O)[C@H](Cc2ccc(O)cc2)NC(=O)[C@H](CCCNC(=N)N)NC(=O)[C@H](CSC3)NC(=O)[C@H](C)NC(=O)[C@H](CCCNC(=N)N)NC(=O)[C@@H]2CCCN2C1=O` [Peptide 36] (Ac-CPRACRYKTAPRCK-NH2; linker 1-5-13 via TBMB), under setting [2], the IC50 was greater than 10000 nM. In addition, for the setting “competitive FP assay”, the “FP activity in words” value is “completely lose affinity”.

On to `CC(=O)N[C@H]1CSCc2cc3cc(c2)CSC[C@@H](C(=O)N[C@@H](C)C(N)=O)NC(=O)[C@@H]2CCCN2C(=O)[C@H](CCCCN)NC(=O)[C@H](Cc2ccc(O)cc2)NC(=O)[C@@H]2CCCN2C(=O)[C@H](CCCNC(=N)N)NC(=O)[C@H](CCCNC(=N)N)NC(=O)[C@H](C)NC(=O)[C@H](CSC3)NC(=O)[C@H](C)NC(=O)[C@H](CCCCN)NC(=O)[C@H]([C@@H](C)O)NC1=O` [Peptide 39] (Ac-CTKACARRPYKPCA-NH2; linker 1-5-13 via TBMB), for which the half-maximal inhibitory concentration (IC50) under setting [2] was determined as 77.4 ± 9.6 nM.

In the case of `CC(=O)N[C@H]1CSCc2cc3cc(c2)CSC[C@H](NC(=O)[C@H](CCCNC(=N)N)NC(=O)[C@H](CCCCN)NC(=O)[C@H]([C@@H](C)O)NC1=O)C(=O)N[C@@H](C)C(=O)N[C@@H](CCCNC(=N)N)C(=O)N[C@@H](CCCNC(=N)N)C(=O)N1CCC[C@H]1C(=O)N[C@@H](Cc1ccc(O)cc1)C(=O)N[C@@H](CCCCN)C(=O)N1CCC[C@H]1C(=O)N[C@H](C(N)=O)CSC3` [Peptide 46] (Ac-CTKRCARRPYKPC-NH2; linker 1-5-13 via TBMB), the IC50 under setting [2] was 20.5 ± 1.4 nM.
